Assay results taken from ChEMBL document CHEMBL1156193, “Discovery of a long-acting, peripherally selective inhibitor of catechol-O-methyltransferase” (2010).

How the values were obtained:
[1] = Cytotoxicity against mouse Neuro2a cells assessed as cell viability at 30 uM after 24 hrs; format: functional; conditions: N2a, read-out: Activity
[2] = target: T1, Catechol O-methyltransferase (Rattus norvegicus) (UniProt P22734); assay: Inhibition of COMT in rat liver homogenates assessed as metanephrine formation at 30 uM relative to control; values are per cent of control
T1 sequence (whole entry): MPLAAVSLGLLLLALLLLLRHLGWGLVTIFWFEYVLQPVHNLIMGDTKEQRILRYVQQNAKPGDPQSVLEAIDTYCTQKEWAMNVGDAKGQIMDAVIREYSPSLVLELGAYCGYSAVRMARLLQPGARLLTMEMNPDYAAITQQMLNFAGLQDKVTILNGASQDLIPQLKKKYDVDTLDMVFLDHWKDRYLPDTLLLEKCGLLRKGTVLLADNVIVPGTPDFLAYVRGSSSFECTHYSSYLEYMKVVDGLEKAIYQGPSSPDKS

Mus musculus [3] = assay: Inhibition of COMT in NMRI mouse liver homogenates assessed as metanephrine formation at 3 mg/kg, po measured after 3 hrs relative to control; values are per cent of control
Rattus norvegicus [4] = assay: Inhibition of COMT in Wistar rat liver homogenates assessed as metanephrine formation at 3 mg/kg, po measured after 3 hrs relative to control; values are per cent of control
Mus musculus [5] = assay: Inhibition of COMT in NMRI mouse liver homogenates assessed as metanephrine formation at 30 mg/kg, po measured after 6 hrs relative to control; values are per cent of control
[6] = target: T1, Catechol O-methyltransferase (Rattus norvegicus); assay: Inhibition of COMT in rat liver homogenates assessed as metanephrine formation at 3 uM relative to control; values are per cent of control
Rattus norvegicus [7] = assay: Inhibition of COMT in Wistar rat brain homogenates assessed as metanephrine formation at 3 mg/kg, po measured after 3 hrs relative to control; values are per cent of control

Molecule `O=[N+]([O-])c1cc(-c2nc(-c3ccccn3)no2)cc(O)c1O` has a viability at 30 µM [1] of 70.5%.
In the case of `Oc1ccc(-c2ccnn2-c2ccccc2)c(O)c1O`, the residual activity [2] was 26.8%.
With `CN1CCN(c2noc(-c3cc(O)c(O)c([N+](=O)[O-])c3)n2)CC1` the viability at 30 µM [1] was 90.2% and the level, % of control at 3 mg/kg (Mus musculus [3]) was 56.8%.
Molecule `Cc1ccc(-c2noc(-c3cc(O)c(O)c([N+](=O)[O-])c3)n2)c(N2CCOCC2)n1` has a viability at 30 µM [1] of 43.8%.
Molecule `O=[N+]([O-])c1cc(-c2nc(-c3cnccn3)no2)cc(O)c1O` has a viability at 30 µM [1] of 60.5%.
For `O=[N+]([O-])c1cc(-c2nc(-c3ccc[n+]([O-])c3Cl)no2)cc(O)c1O`, the viability at 30 µM [1] was 93.7% and the level, % of control at 3 mg/kg (Rattus norvegicus [4]) was 71.6%.
Molecule `Cc1ccc(-c2noc(-c3cc(O)c(O)c([N+](=O)[O-])c3)n2)c(Cl)[n+]1[O-]` has a viability at 30 µM [1] of 100% and a level, % of control at 3 mg/kg (Rattus norvegicus [4]) of 31.6%.
In the case of `Oc1cc(-c2ccnn2-c2ccccc2)cc(O)c1O`, the residual activity [2] was 0.8%.
For `Cc1c(-c2noc(-c3cc(O)c(O)c([N+](=O)[O-])c3)n2)ccc(C(F)(F)F)[n+]1[O-]`, the viability at 30 µM [1] was 62.2% and the level, % of control at 3 mg/kg (Rattus norvegicus [4]) was 13.9%.
`O=[N+]([O-])c1cc(-c2cncn2-c2ccccc2)cc(O)c1O` gave a level, % of control at 30 mg/kg (Mus musculus [5]) of 109%.
Work on `O=[N+]([O-])c1cc(-c2ccnn2-c2cccc(Cl)c2)cc(O)c1O` yielded a residual activity [6] of 0%.
In the case of `Cc1cc(-c2noc(-c3cc(O)c(O)c([N+](=O)[O-])c3)n2)on1`, the viability at 30 µM [1] was 27.6%.
Work on `Cc1nc(-c2cc(O)c(O)c([N+](=O)[O-])c2)c(-c2ccccc2)o1` yielded a level, % of control at 30 mg/kg (Mus musculus [5]) of 84.1%.
Molecule `O=[N+]([O-])c1cc(-c2nc(-c3cccnc3)no2)cc(O)c1O` has a viability at 30 µM [1] of 26.7%.
Work on `Cc1nc(-c2noc(-c3cc(O)c(O)c([N+](=O)[O-])c3)n2)cs1` yielded a viability at 30 µM [1] of 58.7% and a level, % of control at 3 mg/kg (Mus musculus [3]) of 22.9%.
Molecule `O=[N+]([O-])c1cc(-c2nc(-c3ccc(Cl)c(Cl)c3)no2)cc(O)c1O` has a viability at 30 µM [1] of 37.7% and a level, % of control at 3 mg/kg (Mus musculus [3]) of 8.8%.
In the case of `O=[N+]([O-])c1cc(-c2nnc(-c3ccccc3)o2)cc(O)c1O`, the level, % of control at 3 mg/kg (Rattus norvegicus [7]) was 87.9%, the level, % of control at 3 mg/kg (Rattus norvegicus [4]) was 67.8% and the level, % of control at 30 mg/kg (Mus musculus [5]) was 47.3%.
With `O=[N+]([O-])c1cc(-c2ccnc(-c3ccccc3)n2)cc(O)c1O` the level, % of control at 30 mg/kg (Mus musculus [5]) was 44.8%.
`Cc1[nH]nc(-c2ccc(O)c(O)c2O)c1-c1ccc(Cl)cc1` gave a residual activity [6] of 15.6%.
With `CN1CCN(C(=O)c2ccc(-c3noc(-c4cc(O)c(O)c([N+](=O)[O-])c4)n3)cc2)CC1` the viability at 30 µM [1] was 90.7% and the level, % of control at 3 mg/kg (Mus musculus [3]) was 74%.
Work on `O=[N+]([O-])c1cc(-c2nc(-c3ccc[n+]([O-])c3C(F)(F)F)no2)cc(O)c1O` yielded a viability at 30 µM [1] of 96.4% and a level, % of control at 3 mg/kg (Rattus norvegicus [4]) of 5.5%.
In the case of `Cc1cc(C(F)(F)F)c(-c2noc(-c3cc(O)c(O)c([N+](=O)[O-])c3)n2)c(C)[n+]1[O-]`, the viability at 30 µM [1] was 37.2% and the level, % of control at 3 mg/kg (Rattus norvegicus [4]) was 1.3%.
`O=[N+]([O-])c1cc(-c2noc(-c3ccccc3)n2)cc(O)c1O` gave a level, % of control at 3 mg/kg (Rattus norvegicus [7]) of 55.6%, a level, % of control at 3 mg/kg (Rattus norvegicus [4]) of 51.9% and a level, % of control at 30 mg/kg (Mus musculus [5]) of 24.4%.
Work on `O=[N+]([O-])c1cc(-c2c(-c3ccccc3)cnn2-c2cccc(Cl)c2)cc(O)c1O` yielded a residual activity [6] of 68.6%.
Molecule `CC(=O)N1CCN(c2noc(-c3cc(O)c(O)c([N+](=O)[O-])c3)n2)CC1` has a viability at 30 µM [1] of 104% and a level, % of control at 3 mg/kg (Mus musculus [3]) of 68.2%.
Molecule `Cc1ccc(-n2nccc2-c2ccc(O)c(O)c2)cc1` has a residual activity [2] of 41.2%.
For `NC(=O)c1ccc(-c2noc(-c3cc(O)c(O)c([N+](=O)[O-])c3)n2)cc1`, the viability at 30 µM [1] was 91.2% and the level, % of control at 3 mg/kg (Mus musculus [3]) was 79.2%.
